Source: ChEMBL document CHEMBL1129761, “2-[(Alkylsulfonyl)oxy]-6-substituted-1H-isoindole-1,3(2H)-dione mechanism-based inhibitors of human leukocyte elastase” (Bioorg Med Chem Lett, 1996)

Tests used:
[1] = target: Chymotrypsinogen A (Bos taurus) (UniProt P00766); experiment: Compound was evaluated for the inhibition of Chymotrypsinogen
[2] = target: T1, Neutrophil elastase (Homo sapiens) (UniProt P08246); experiment: Compound was evaluated for the inhibition of human leukocyte elastase (HLE).
T1 sequence (whole entry): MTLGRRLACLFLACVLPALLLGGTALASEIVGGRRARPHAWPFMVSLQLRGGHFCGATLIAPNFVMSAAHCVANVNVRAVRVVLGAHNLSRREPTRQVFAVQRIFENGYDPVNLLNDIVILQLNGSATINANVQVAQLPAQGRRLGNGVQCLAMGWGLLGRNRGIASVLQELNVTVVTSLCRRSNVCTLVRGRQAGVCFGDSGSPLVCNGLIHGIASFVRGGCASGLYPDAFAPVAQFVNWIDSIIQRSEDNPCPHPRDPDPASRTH

[3] = target: T2, Chymotrypsin-like elastase family member 2A (Sus scrofa) (UniProt P08419); experiment: Compound was evaluated for the inhibition of porcine pancreatic elastase (PPE).
T2 sequence (whole entry): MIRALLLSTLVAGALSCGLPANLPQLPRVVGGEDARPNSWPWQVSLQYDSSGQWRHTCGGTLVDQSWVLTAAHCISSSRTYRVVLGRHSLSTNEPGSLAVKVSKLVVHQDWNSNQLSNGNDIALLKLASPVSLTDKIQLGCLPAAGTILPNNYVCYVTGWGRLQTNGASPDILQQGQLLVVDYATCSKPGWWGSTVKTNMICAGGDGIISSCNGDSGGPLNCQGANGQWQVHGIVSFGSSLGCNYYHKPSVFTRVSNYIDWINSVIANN

| k obs / 1 [1] [M⁻¹ s⁻¹] | k obs / 1 [2] [M⁻¹ s⁻¹] | k obs / 1 [3] [M⁻¹ s⁻¹] | Structure (SMILES) |
| --- | --- | --- | --- |
| 90000 | 78000 | 1400 | Cc1ccc(S(=O)(=O)ON2C(=O)c3ccccc3C2=O)cc1 |
| 160000 | 63000 | 370 | CC(C)S(=O)(=O)ON1C(=O)c2ccccc2C1=O |
| 27000 | 58000 | 7400 | Cc1ccc(S(=O)(=O)ON2C(=O)c3ccc(C)cc3C2=O)cc1 |
| 11000 | 82000 | 22000 | CC(C)S(=O)(=O)ON1C(=O)c2ccc(N)cc2C1=O |
| 16000 | 30000 | 21000 | Cc1ccc2c(c1)C(=O)N(OS(C)(=O)=O)C2=O |
| 2700 | 61000 | 6500 | CS(=O)(=O)ON1C(=O)c2ccccc2C1=O |
| 12000 | 110000 | 24000 | CS(=O)(=O)ON1C(=O)c2ccc(N)cc2C1=O |
